Consider ten cell lines from the supplement of paper PMC10307832.

Holding throughout (test): relative viability (nuclei count vs DMSO), 5 days (fraction); higher = more cells survive
Compound in assay [1]: C1=CC2=C(C=C(C(=C2N=C1)O)N=NC3=CC4=C(C=C3)C=C(C=C4)S(=O)(=O)O)S(=O)(=O)O + Cc1cc(Nc2cc(N3CCN(C)CC3)nc(Sc3ccc(NC(=O)C4CC4)cc3)n2)n[nH]1 [Tozasertib] (partner 0.1 µM)
The gist of the method:
(§1)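 Lung cancer cell lines in 1536-well plates got either a single drug or a fixed anchor-drug dose together with five library-drug doses (not always all listed) in √10 steps, by pin tool, on the day after seeding. Nuclei were counted after 5 days, and relative viability is the treated-to-vehicle ratio of nuclei counts. Values are medians of duplicate plates.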

Compound in the assay “AT-7519 + Bortezomib”: O=C(NC1CCNCC1)c1n[nH]cc1NC(=O)c1c(Cl)cccc1Cl [AT-7519] + CC(C)C[C@H](NC(=O)[C@H](Cc1ccccc1)NC(=O)c1cnccn1)B(O)O [Bortezomib] (partner 0.002 µM)
The gist of the method:
as §1

Compound in the assay “AT-7519 + Foretinib”: O=C(NC1CCNCC1)c1n[nH]cc1NC(=O)c1c(Cl)cccc1Cl [AT-7519] + COc1cc2c(Oc3ccc(NC(=O)C4(C(=O)Nc5ccc(F)cc5)CC4)cc3F)ccnc2cc1OCCCN1CCOCC1 [Foretinib] (partner 0.25 µM)
The gist of the method:
as §1

Compound in the assay “AT-7519 + Linsitinib”: O=C(NC1CCNCC1)c1n[nH]cc1NC(=O)c1c(Cl)cccc1Cl [AT-7519] + C[C@]1(O)C[C@@H](c2nc(-c3ccc4ccc(-c5ccccc5)nc4c3)c3c(N)nccn32)C1 [Linsitinib] (partner 1 µM)
The gist of the method: as §1

Take 201T: the relative viability was 1.03 in assay [1] (first compound 0.08 µM); 0.901 in assay [1] (first compound 0.253 µM); 0.987 in assay [1] (first compound 0.8 µM); 0.967 in assay [1] (first compound 2.53 µM); 0.934 in assay [1] (first compound 8 µM); 1.08 in the assay with AT-7519 + Bortezomib (first compound 0.01 µM). Besides, the relative viability with AT-7519 + Bortezomib (first compound 0.03162 µM) was determined as 1.03; with AT-7519 + Bortezomib (first compound 0.3162 µM), 1.1; in the assay with AT-7519 + Bortezomib (first compound 1 µM), 1.09; in the assay with AT-7519 + Foretinib (first compound 0.01 µM) it was 1.2; with AT-7519 + Foretinib (first compound 0.03162 µM), 1.05; in the assay with AT-7519 + Foretinib (first compound 1 µM), 0.809. The relative viability with AT-7519 + Linsitinib (first compound 0.01 µM) was determined as 0.933; in the assay with AT-7519 + Linsitinib (first compound 0.03162 µM), 1.04; with AT-7519 + Linsitinib (first compound 0.3162 µM) it was 1.06; in the assay with AT-7519 + Linsitinib (first compound 1 µM), 1.05.

As to A549, the relative viability with AT-7519 + Foretinib (first compound 0.01 µM) turned out to be 0.925; with AT-7519 + Foretinib (first compound 0.03162 µM), 0.984; with AT-7519 + Foretinib (first compound 0.3162 µM) it was 0.852; with AT-7519 + Foretinib (first compound 1 µM) it was 0.845; with AT-7519 + Linsitinib (first compound 0.01 µM), 0.658; in the assay with AT-7519 + Linsitinib (first compound 0.03162 µM), 0.552. Moreover, the values for the relative viability with AT-7519 + Linsitinib (first compound 0.3162 µM) and with AT-7519 + Linsitinib (first compound 1 µM) were 0.629 and 0.39, respectively.

As to A-427, the relative viability in assay [1] (first compound 0.08 µM) came to 0.235; in assay [1] (first compound 0.253 µM) it was 0.216; in assay [1] (first compound 0.8 µM), 0.207; in assay [1] (first compound 2.53 µM) it was 0.239; in assay [1] (first compound 8 µM) it was 0.252; with AT-7519 + Bortezomib (first compound 0.01 µM), 1.02. The relative viability with AT-7519 + Bortezomib (first compound 0.03162 µM) is 0.961; in the assay with AT-7519 + Bortezomib (first compound 0.3162 µM), 1.04; in the assay with AT-7519 + Bortezomib (first compound 1 µM), 0.792; in the assay with AT-7519 + Foretinib (first compound 0.01 µM), 1.16; with AT-7519 + Foretinib (first compound 0.03162 µM), 0.968; with AT-7519 + Foretinib (first compound 0.3162 µM), 1.06. Also, the relative viability stood at 0.384 with AT-7519 + Foretinib (first compound 1 µM); 1.13 with AT-7519 + Linsitinib (first compound 0.01 µM); 1.12 with AT-7519 + Linsitinib (first compound 0.03162 µM); 1.13 in the assay with AT-7519 + Linsitinib (first compound 0.3162 µM); 0.81 with AT-7519 + Linsitinib (first compound 1 µM).

Turning to ABC-1, the relative viability in assay [1] (first compound 0.08 µM) worked out at 0.155; in assay [1] (first compound 0.253 µM), 0.199; in assay [1] (first compound 0.8 µM), 0.176; in assay [1] (first compound 2.53 µM), 0.167; in assay [1] (first compound 8 µM), 0.132; in the assay with AT-7519 + Bortezomib (first compound 0.01 µM), 0.291. Further, the relative viability with AT-7519 + Bortezomib (first compound 0.03162 µM) came out at 0.337; in the assay with AT-7519 + Bortezomib (first compound 0.3162 µM), 0.259; with AT-7519 + Bortezomib (first compound 1 µM), 0.231; with AT-7519 + Foretinib (first compound 0.01 µM) it was 0.937; with AT-7519 + Foretinib (first compound 0.03162 µM), 1.09; with AT-7519 + Foretinib (first compound 0.3162 µM), 0.962. Moreover, the relative viability in the assay with AT-7519 + Foretinib (first compound 1 µM) was determined as 0.541; with AT-7519 + Linsitinib (first compound 0.01 µM), 0.784; in the assay with AT-7519 + Linsitinib (first compound 0.03162 µM), 0.715; with AT-7519 + Linsitinib (first compound 0.3162 µM), 0.788; with AT-7519 + Linsitinib (first compound 1 µM) it was 0.243.

As to BEN, the relative viability turned out to be 0.55 in assay [1] (first compound 0.08 µM); 0.535 in assay [1] (first compound 0.253 µM); 0.572 in assay [1] (first compound 0.8 µM); 0.548 in assay [1] (first compound 2.53 µM); 0.47 in assay [1] (first compound 8 µM); 0.958 in the assay with AT-7519 + Bortezomib (first compound 0.01 µM). For the same cell line, the relative viability with AT-7519 + Bortezomib (first compound 0.03162 µM) is 0.766; in the assay with AT-7519 + Bortezomib (first compound 0.3162 µM), 0.935; with AT-7519 + Bortezomib (first compound 1 µM) it was 0.82; with AT-7519 + Foretinib (first compound 0.01 µM), 0.719; with AT-7519 + Foretinib (first compound 0.03162 µM), 0.636; in the assay with AT-7519 + Foretinib (first compound 0.3162 µM), 0.922. The relative viability with AT-7519 + Foretinib (first compound 1 µM) came to 0.8; with AT-7519 + Linsitinib (first compound 0.01 µM), 0.887; with AT-7519 + Linsitinib (first compound 0.03162 µM) it was 0.894; with AT-7519 + Linsitinib (first compound 0.3162 µM), 0.864; in the assay with AT-7519 + Linsitinib (first compound 1 µM), 0.785.

Turning to CAL-12T, the relative viability in assay [1] (first compound 0.08 µM) was 0.29; in assay [1] (first compound 0.253 µM) it was 0.34; in assay [1] (first compound 0.8 µM), 0.378; in assay [1] (first compound 2.53 µM) it was 0.327; in assay [1] (first compound 8 µM) it was 0.296; with AT-7519 + Bortezomib (first compound 0.03162 µM) it was 0.929. Also, the relative viability came to 0.593 with AT-7519 + Bortezomib (first compound 0.3162 µM); 0.336 in the assay with AT-7519 + Bortezomib (first compound 1 µM); 1.17 with AT-7519 + Foretinib (first compound 0.01 µM); 1.19 with AT-7519 + Foretinib (first compound 0.03162 µM); 0.814 with AT-7519 + Foretinib (first compound 0.3162 µM); 0.178 with AT-7519 + Foretinib (first compound 1 µM). The relative viability is 0.755 with AT-7519 + Linsitinib (first compound 0.01 µM), 0.752 with AT-7519 + Linsitinib (first compound 0.03162 µM), 0.69 with AT-7519 + Linsitinib (first compound 0.3162 µM) and 0.314 with AT-7519 + Linsitinib (first compound 1 µM).

COR-L23: the relative viability was found to be 0.22 in assay [1] (first compound 0.08 µM); 0.173 in assay [1] (first compound 0.253 µM); 0.247 in assay [1] (first compound 0.8 µM); 0.197 in assay [1] (first compound 2.53 µM); 0.233 in assay [1] (first compound 8 µM); 0.994 with AT-7519 + Bortezomib (first compound 0.01 µM). Further, the relative viability stood at 0.863 with AT-7519 + Bortezomib (first compound 0.03162 µM); 0.82 in the assay with AT-7519 + Bortezomib (first compound 0.3162 µM); 0.2 in the assay with AT-7519 + Bortezomib (first compound 1 µM); 1.19 with AT-7519 + Foretinib (first compound 0.01 µM); 0.799 with AT-7519 + Foretinib (first compound 0.03162 µM); 0.992 with AT-7519 + Foretinib (first compound 0.3162 µM). The relative viability with AT-7519 + Foretinib (first compound 1 µM) worked out at 0.507; in the assay with AT-7519 + Linsitinib (first compound 0.01 µM), 0.82; with AT-7519 + Linsitinib (first compound 0.03162 µM), 0.776; with AT-7519 + Linsitinib (first compound 0.3162 µM), 0.481; with AT-7519 + Linsitinib (first compound 1 µM), 0.137.

On to COR-L 105, for which the relative viability is 0.355 in assay [1] (first compound 0.08 µM); 0.37 in assay [1] (first compound 0.253 µM); 0.367 in assay [1] (first compound 0.8 µM); 0.361 in assay [1] (first compound 2.53 µM); 0.378 in assay [1] (first compound 8 µM); 0.75 with AT-7519 + Bortezomib (first compound 0.01 µM). The relative viability in the assay with AT-7519 + Bortezomib (first compound 0.03162 µM) is 0.898; in the assay with AT-7519 + Bortezomib (first compound 0.3162 µM), 0.65; with AT-7519 + Bortezomib (first compound 1 µM), 0.344; with AT-7519 + Foretinib (first compound 0.01 µM), 1.17; with AT-7519 + Foretinib (first compound 0.03162 µM) it was 1.01; in the assay with AT-7519 + Foretinib (first compound 0.3162 µM), 1.2. Moreover, the relative viability with AT-7519 + Foretinib (first compound 1 µM) is 0.525; with AT-7519 + Linsitinib (first compound 0.01 µM), 0.962; in the assay with AT-7519 + Linsitinib (first compound 0.03162 µM) it was 0.907; with AT-7519 + Linsitinib (first compound 0.3162 µM) it was 0.867; with AT-7519 + Linsitinib (first compound 1 µM) it was 0.516.

With Calu-6, the relative viability amounted to 1.11 in the assay with AT-7519 + Bortezomib (first compound 0.01 µM); 0.975 with AT-7519 + Bortezomib (first compound 0.03162 µM); 1 with AT-7519 + Bortezomib (first compound 0.3162 µM); 0.328 with AT-7519 + Bortezomib (first compound 1 µM); 0.903 in the assay with AT-7519 + Foretinib (first compound 0.01 µM); 0.917 with AT-7519 + Foretinib (first compound 0.03162 µM). Further, the relative viability with AT-7519 + Foretinib (first compound 0.3162 µM) worked out at 0.865; in the assay with AT-7519 + Foretinib (first compound 1 µM), 0.641; with AT-7519 + Linsitinib (first compound 0.01 µM) it was 1.05; with AT-7519 + Linsitinib (first compound 0.03162 µM), 0.942; with AT-7519 + Linsitinib (first compound 0.3162 µM), 1.07; with AT-7519 + Linsitinib (first compound 1 µM) it was 0.772.

Consider ChaGo-K-1, for which the relative viability in assay [1] (first compound 0.08 µM) worked out at 0.238; in assay [1] (first compound 0.253 µM), 0.198; in assay [1] (first compound 0.8 µM) it was 0.205; in assay [1] (first compound 2.53 µM), 0.205; in assay [1] (first compound 8 µM), 0.244; with AT-7519 + Bortezomib (first compound 0.01 µM), 1.03. The relative viability with AT-7519 + Bortezomib (first compound 0.03162 µM) is 1.37; with AT-7519 + Bortezomib (first compound 0.3162 µM) it was 0.763; with AT-7519 + Bortezomib (first compound 1 µM) it was 0.96; with AT-7519 + Foretinib (first compound 0.01 µM), 0.931; in the assay with AT-7519 + Foretinib (first compound 0.03162 µM), 0.845; with AT-7519 + Foretinib (first compound 0.3162 µM), 0.967. Moreover, the relative viability with AT-7519 + Foretinib (first compound 1 µM) was 0.733.
